Measurements taken from article PMC8136953 (Veterinary Medicine and Science, 2020).
Where “and” joins values, the source holds several entries; their conditions need not be identical. Equal values may be shown once. Read-outs that look alike come from different tables or passages of the source.

Columns and labels:
[1] = Plasma pharmacokinetics of FLO after a single dietary administration
Procedure: Apparently healthy European seabass averaging about 100 ± 12 g were obtained from a local fish farm (Selonda aquaculture S.A) and distributed in two cages (1 m^3) located within a 50 m^3 cement tank (85 fish/cage). Water was supplied by open flow and oxygen was provided continuously by bubbling air. The water temperature and salinity were 24 ± 1°C and 38‰, respectively. Fish were allowed to acclimate for 7 days prior to experimentation and fed a drug‐free commercial diet at 1.5% body weight (B.W.).
During the trial, the experimental diet was stored at 4°C and was left to obtain ambient temperature before delivery.
Sampling of fish was performed at predetermined time points during and post treatment (Figure 1) after anesthetization with clove oil (40 mg/L). […] At each sampling point, 10 fish were killed by a blow to the head and tissue samples were obtained. Approximately, 2 ml of blood was drawn with a needle (Microlance 23G 11/4 0.6 × 30; Becton Dickinson, Zaragoza, Spain) from the caudal vein at selected time points during treatment and transferred into heparinised test tubes. Plasma was separated from blood samples by centrifugation at 20,160 g for 10 min at 4°C. Moreover for the withdrawal study, muscle plus skin (approximately 5 g) were taken from the anterior dorsal region on days 1, 2, 3, 4 and 6 post treatment. All prepared tissue samples were immediately frozen and stored at −20°C until analysis.
Briefly, 1 ml of plasma sample was placed in a 10 ml polypropylene centrifuge tube with 500 μl of acetonitrile:water (35:65, v/v). […] The homogenised samples were centrifuged (8,000 g for 10 min) and the supernatant was transferred to a 15 ml polypropylene centrifuge tube. The extraction step was repeated twice. The combined extract was then evaporated to dryness at 40°C under a gentle stream of nitrogen. The residue was reconstituted by 1 ml of mobile phase solution. Five milliliter of hexane were added into the tube and after mixing it was subjected to centrifugation for 5 min at 2,150 g prior to the removal of the hexane layer. The afore‐mentioned de‐fatting step was also repeated twice. The water‐based phase was filtered using 0.22 μm nylon filter and the filtrate (200 μl) was then analysed by HPLC.
The column temperature was maintained at 30°C and the injected volume was 200 μl. As a mobile phase, (A) an aqueous solution of NaH2PO4 (0.01 M) containing 0.005 M sodium dodecyl sulphate and 0.1% triethylamine (pH 4.8 adjusted with 85% phosphoric acid) and (B) acetonitrile were used (A/B, 65:35, v/v). The flow rate was 1.0 ml/min.
The area under the concentration–time curve (AUC0‐∞) was determined using trapezoidal method and was extrapolated to infinity.

[2] = Residue depletion in muscle plus skin and withdrawal times after multiple oral dosing; format: in vivo, European seabass Dicentrarchus labrax; details: 10 mg kg^−1 day^−1 for 7 days, 24°C, mean ± SD
Procedure: Briefly, muscle plus skin samples were sheared, and subsequently 2 g of ground sample was weighed into a 50 ml centrifuge tube. Ten ml of ethyl acetate were added and the mixture was homogenized with an IKA Ultra‐Turrax T25 Disperser (IKA®‐Werke GmbH & Co. KG, Staufen, Germany) for 30 s at […]. The mixture was agitated for 20 min and then was centrifuged at 3,500 rpm/min for 10 min at 5°C. […] The combined extract was then evaporated to dryness at 45°C under nitrogen stream. Two milliliter of hexane and 1 ml of mobile phase solution were added in the residue. After gentle agitation for 5 min, the mixture was centrifuged (2,150 g for 5 min). The upper layer (hexane) was discarded and the de‐fatting step was repeated. The bottom layer (1 ml) was filtered (0.22 μm nylon filter) and then was subjected to HPLC analysis.
The flow rate was 1.0 ml/min.
Withdrawal period was determined at the time when the upper one‐sided 95% tolerance limit for the residue was below the MRL with 95% confidence.

[3] = cited from earlier work
[4] = parameters: method as in Huang et al. (2019); details: 0‰, 50 g, ref Huang et al. (2019), cited from earlier work; for C max / T max / t 1/2b: SO‐FA, 25 mg/kg fish
[5] = 0‰, 25 °C, cited from earlier work
[6] = parameters: method as in Kverme et al. (2019); details: 34‰, SO‐FA, 10 mg/kg fish, 114 g, 12 °C; ref Kverme et al. (2019); cited from earlier work
[7] = 28‰, MO, 10 × 10d mg/kg fish, 150 g, 27 °C; ref Di Salvo et al. (2013); cited from earlier work
[8] = European seabass (Dicentrarchus labrax), plasma, oral, 10 mg/kg
[9] = 0‰, MO, 10 × 10d mg/kg fish, 444–474 g, 25–30 °C, ref Kosoff et al. (2009)
[10] = 0‰, MO, 15 × 10d mg/kg fish, 100–500 g, 25 °C, ref Bowser et al. (2009)
[11] = 0‰, SO‐FA, 15 mg/kg fish, 500–700 g, 24 °C, ref Rairat et al. (2019)
[12] = 0‰, SO‐FA, 15 mg/kg fish, 500–700 g, 28 °C, ref Rairat et al. (2019)
[13] = 0‰, SO‐FA, 15 mg/kg fish, 500–700 g, 28 °C, ref Rairat et al. (2020)
[14] = 0‰, SO‐FA, 15 mg/kg fish, 500–700 g, 32 °C, ref Rairat et al. (2019)
[15] = 2‰, SO‐FA, 15 mg/kg fish, 500–700 g, 28 °C, ref Rairat et al. (2020)
[16] = 4‰, SO‐FA, 15 mg/kg fish, 500–700 g, 28 °C, ref Rairat et al. (2020)
[17] = 8‰, SO‐FA, 15 mg/kg fish, 500–700 g, 28 °C, ref Rairat et al. (2020)
[18] = 15‰, SO‐FA, 15 mg/kg fish, 500–700 g, 28 °C, ref Rairat et al. (2020)
[19] = MO‐FA, 10 × 10d mg/kg fish, 612 g, ref Gaunt et al. (2013)
[20] = SO‐FA, 10 mg/kg fish, ref Gaunt et al. (2012)

CS(=O)(=O)c1ccc([C@@H](O)[C@@H](CF)NC(=O)C(Cl)Cl)cc1 [FLO, florfenicol]
Tmax [1, 8]: 4 h | concentration at 24 hr [1, 8]: 550 ng/mL | AUC ([1]; European seabass (Dicentrarchus labrax), plasma, po, 10 mg/kg): 34700 ng·h/mL | half-life ([1]; in vivo, po, 10 mg/kg): 13 h | AUC ([1]; plasma, po, 10 mg/kg): 34700 ng·h/mL | Maximum plasma concentration ([1]; single dietary administration 10 mg/kg, plasma, 24°C): 1.6 µg/mL and 1.64 µg/mL | Muscle plus skin FLO concentration ([2]; 144 hours after last dosing): below LOQ | concentration at 24 hours after last dosing ([2]; European seabass (Dicentrarchus labrax), in vivo, 24 hours after last dosing): 800 ± 1740 ng/g | concentration at 48 hours after last dosing ([2]; European seabass (Dicentrarchus labrax), in vivo, 48 hours after last dosing): 250 ± 640 ng/g | concentration at 72 hours after last dosing ([2]; European seabass (Dicentrarchus labrax), in vivo, 72 hours after last dosing): 40 ± 20 ng/g | concentration at 96 hours after last dosing ([2]; European seabass (Dicentrarchus labrax), in vivo, 96 hours after last dosing): 40 ± 10 ng/g | concentration at 144 hours after last dosing ([2]; European seabass (Dicentrarchus labrax), in vivo, 144 hours after last dosing): 30 ± 10 ng/g | C max [3, 9]: 6500 to 6700 ng/mL | WT [3, 9]: 98 to 146 h | C max [3, 10]: 7100 to 15200 ng/mL | WT [3, 10]: >288 h | t 1/2b [3, 10]: 1.2 to 2.2 h | C max [3, 11]: 23100 ng/mL | T max [3, 11]: 1.4 h | t 1/2b [3, 11]: 12.4 h | C max [3, 12]: 16700 ng/mL | T max [3, 12]: 1.2 h | t 1/2b [3, 12]: 9.5 h | C max [3, 13]: 24000 ng/mL | T max [3, 13]: 0.8 h | t 1/2b [3, 13]: 11.3 h | C max [3, 14]: 16700 ng/mL | T max [3, 14]: 0.8 h | t 1/2b [3, 14]: 7.3 h | t 1/2b ([3]; 2‰, SO‐FA, 15 mg/kg fish, 500–700 g, 28 °C, ref Rairat et al. (2020), 15 mg/kg): 10.7 h | C max [3, 15]: 21600 ng/mL | T max [3, 15]: 0.9 h | C max [3, 16]: 21800 ng/mL | T max [3, 16]: 0.9 h | t 1/2b [3, 16]: 10.6 h | C max [3, 17]: 24400 ng/mL | T max [3, 17]: 0.9 h | t 1/2b [3, 17]: 10.2 h | t 1/2b ([3]; 15‰, SO‐FA, 15 mg/kg fish, 500–700 g, 28 °C, ref Rairat et al. (2020), 15 mg/kg): 8.9 h | C max [3, 18]: 22700 ng/mL | T max [3, 18]: 1.0 h | WT ([4]; MO‐FA, 25 × 3d mg/kg fish, 28 °C): 198 h | C max ([4]; 18 °C): 5900 ng/mL | T max ([4]; 18 °C): 6.0 h | t 1/2b ([4]; 18 °C): 26.8 h | C max ([4]; 28 °C): 6200 ng/mL | T max ([4]; 28 °C): 2.8 h | t 1/2b ([4]; 28 °C): 16.1 h | C max [5, 19]: 9700 ng/mL | T max [5, 19]: 8 h | C max [5, 20]: 7600 ng/mL | T max [5, 20]: 9 h | t 1/2b [5, 20]: 9.1 h | C max [6]: 3600 ng/mL | T max [6]: 21.2 h | t 1/2b [6]: 21.2 h | WT [7]: 95 h
